{
  "source": "patent EP0154886A2",
  "about": "“Carboxyalkyl dipeptide derivatives, process for their preparation, agents containing them, and their use” (HOECHST AKTIENGESELLSCHAFT, priority 1984, dated 1985)",
  "key": {"[1]": {"target": "Angiotensin-Converting-Enzyme (ACE) (Homo sapiens, UniProt P12821)", "sequence (P12821 30-1306, species assumed)": "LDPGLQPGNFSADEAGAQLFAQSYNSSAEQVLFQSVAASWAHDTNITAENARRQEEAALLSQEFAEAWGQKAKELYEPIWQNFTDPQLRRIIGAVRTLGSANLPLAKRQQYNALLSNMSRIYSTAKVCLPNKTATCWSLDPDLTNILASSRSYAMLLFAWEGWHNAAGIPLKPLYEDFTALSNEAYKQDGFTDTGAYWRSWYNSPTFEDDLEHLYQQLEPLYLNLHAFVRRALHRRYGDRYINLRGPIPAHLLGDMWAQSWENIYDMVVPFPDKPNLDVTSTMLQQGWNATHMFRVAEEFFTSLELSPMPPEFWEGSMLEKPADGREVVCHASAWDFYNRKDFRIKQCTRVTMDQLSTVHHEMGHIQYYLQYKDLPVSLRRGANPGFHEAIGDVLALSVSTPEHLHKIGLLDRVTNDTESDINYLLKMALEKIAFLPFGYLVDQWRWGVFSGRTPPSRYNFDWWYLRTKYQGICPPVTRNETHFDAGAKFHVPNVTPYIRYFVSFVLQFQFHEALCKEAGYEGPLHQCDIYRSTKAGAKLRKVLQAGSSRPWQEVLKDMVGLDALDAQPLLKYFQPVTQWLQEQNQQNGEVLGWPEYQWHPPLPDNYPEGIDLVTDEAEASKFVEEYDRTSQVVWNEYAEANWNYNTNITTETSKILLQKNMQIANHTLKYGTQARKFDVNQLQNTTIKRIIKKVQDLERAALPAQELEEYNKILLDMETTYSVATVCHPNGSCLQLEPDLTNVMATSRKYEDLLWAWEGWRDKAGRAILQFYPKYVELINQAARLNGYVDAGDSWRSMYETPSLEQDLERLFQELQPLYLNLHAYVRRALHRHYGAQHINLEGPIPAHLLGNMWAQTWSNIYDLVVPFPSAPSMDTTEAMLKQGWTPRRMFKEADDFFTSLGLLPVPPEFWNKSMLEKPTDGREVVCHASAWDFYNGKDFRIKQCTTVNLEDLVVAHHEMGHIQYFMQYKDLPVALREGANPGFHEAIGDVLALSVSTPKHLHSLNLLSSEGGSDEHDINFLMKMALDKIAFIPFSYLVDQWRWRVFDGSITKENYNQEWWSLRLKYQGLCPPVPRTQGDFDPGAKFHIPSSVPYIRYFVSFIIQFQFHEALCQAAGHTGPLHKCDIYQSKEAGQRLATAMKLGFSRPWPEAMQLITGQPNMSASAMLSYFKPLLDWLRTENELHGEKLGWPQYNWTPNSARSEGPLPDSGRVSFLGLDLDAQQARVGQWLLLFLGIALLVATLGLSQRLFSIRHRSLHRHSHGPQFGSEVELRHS", "experiment": "ACE inhibition in vitro assay (Biochem. Biophys. Acta, 206, 136 (1970))", "format": "biochemical"}, "[2]": {"system": "durch intravenöse Gabe von 310 ng Angiotensin hervorgerufene Pressorreaktion", "experiment": "Inhibition of the angiotensin-induced pressor response in the anaesthetised rat after intraduodenal administration", "format": "in vivo, Ratte", "conditions": "narcotised rat", "description": "Die erfindungsgemäßen Verbindungen der Formel I sind Hemmer des Angiotensin-Converting-Enzyme (ACE), das die Umwandlung von Angiotensin I in das pressorisch wirksame Angiotensin II katalysiert. […] Besonders interessant ist hierbei der langsame Wirkungseintritt und die lange Wirkdauer der Verbindung. So beobachtet man bei intraduodenaler Gabe von 0,3 mg/kg Körpergewicht eine Hemmung um 15 % nach 10 min, 30 % nach 20 min, 60 % nach 30 min und 70 % nach 45 min; die Wirkung hält länger als 6 Stunden an."}},
  "data": [
    {"smiles": "NCCCC[C@H](N[C@@H](CCC1CCCCC1)C(=O)O)C(=O)N1[C@H](C(=O)O)C[C@@H]2CCCC[C@@H]21", "note": "[N-(1-S-CarboxY-3-cyclohexyl-propyl)-S-lysyl-2S,3aS,7aS-octahydroindol-2-carbonsäure]", "values": [
      {"measurement": "IC50", "setting": "[1]", "value": 3.4, "unit": "nM"},
      {"measurement": "Hemmung", "setting": "[2]; intraduodenal 0,3 mg/kg Körpergewicht, after 10 min", "value": 15, "unit": "%"},
      {"measurement": "Hemmung", "setting": "[2]; intraduodenal 0,3 mg/kg Körpergewicht, after 20 min", "value": 30, "unit": "%"},
      {"measurement": "Hemmung", "setting": "[2]; intraduodenal 0,3 mg/kg Körpergewicht, after 30 min", "value": 60, "unit": "%"},
      {"measurement": "Hemmung", "setting": "[2]; intraduodenal 0,3 mg/kg Körpergewicht, after 45 min", "value": 70, "unit": "%"},
      {"measurement": "Wirkdauer (die Wirkung hält an)", "setting": "[2]; intraduodenal 0,3 mg/kg Körpergewicht, duration of effect", "value": "> 6", "unit": "Stunden"},
      {"measurement": "Hemmwirkung auf die Pressorreaktion", "setting": "[2]; intraduodenal administration, 310 ng Angiotensin i.v., qualitative", "value": "starke Hemmwirkung"}
    ]}
  ]
}
